Experiment [1] relates to fire ants. Kind of experiment: Field multiple-choice feeding bioassay (soybean oil consumption). It counts as in vivo, Solenopsis invicta. As to conditions: for difference among treatments and control in oil consumption / feeding preference on soybean oil (one-way ANOVA): all tested concentrations of each compound in soybean oil, field multiple-choice; for concentration at which oil consumption was numerically the highest: multiple-choice bioassay of known attractants; for concentration at which the effect on oil consumption was statistically significant compared to the control oil: Tukey's HSD; for effect of different concentrations on oil consumption (one-way ANOVA): first multiple-choice bioassay: 10-oxo 9.09, 4.54, 2.27, 1.14 mg/g, 11-oxo 8.62, 4.31, 2.15, 1.08 mg/g. The protocol: Multiple-choice and a paired two-choice bioassays were used in this study. A schematic representation of the bioassay set-ups is depicted in FIG. 19. Soybean oil was used as a food source for all the bioassays (Great Value, purchased from Walmart in Greenville Mississippi). The feeding apparatus was a filtered 1-ml pipette tip with the part 0.5 cm below the filter removed. In multiple-choice bioassays, four to six concentrations of tested compounds were tested with untreated soybean oil as a control, and in two-choice bioassays, the compound at certain concentration was tested against the control oil or oil treated with known fire ant attractant. Eighty microliter soybean oil was loaded onto each filter. After being weighed, the apparatuses with oil were placed in the field for about 2 hours. The apparatuses were then collected and frozen under −40° C. to kill all ants. The apparatuses were weighed again after all ants were removed from the apparatuses. The difference in the weight of apparatuses before and after the feeding bioassays was the oil consumption. There were six to 10 replicates for each bioassay. Feeding sites were at least 10 m away from each other. The difference in oil consumption among/between treatment and control apparatuses was used to evaluate the effect of tested compound on the feeding of fire ants. For multiple-choice bioassays, a one-way ANOVA was performed to compare the effect of different concentrations of tested compound on the percentage of oil consumption. Tukey's HSD test was used for multiple comparisons. A paired t test was used in statistical analysis for the two-choice bioassays. For each fatty acid, eight concentrations were tested in two separate multiple-choice bioassays. For 10-oxo-dodecnoic acid, the first set used in the multiple-choice bioassay included concentrations of 0.00 mg/g (control), 9.09 mg/g, 4.54 mg/g, 2.27 mg/g, and 1.14 mg/g, and the second set included 0.00 mg/g, […], 0.28 mg/g, 0.142 mg/g, and 0.07 mg/g. There were seven replicates for each set of bioassay. For 11-oxo-dodecnoic acid, the first set used in the multiple-choice bioassay included concentrations of 0.00 mg/g, 8.62 mg/g, 4.31 mg/g, 2.15 mg/g, and 1.08 mg/g, and the second set included 0.00 mg/g, 0.54 mg/g, 0.27 mg/g, 0.14 mg/g, and 0.07 mg/g. There were six replicates for the first set of bioassay and seven replicates for the second set of bioassay. Five oxo fatty acid analogs were tested in the filed using two-choice or multiple-choice bioassays. Tested were 8-oxo-decanoic acid, 9-oxo-2-decenoic acid, 9-oxo-decanoic acid, 11-oxo-tridecanoic acid, and 12-oxo-tetradecanoic acid. Eight oxo-decanoic acid was tested in a multiple-choice bioassay at 6 different concentrations including 0.00 mg/g, 0.81 mg/g, 0.41 mg/g, 0.20 mg/g, 0.10 mg/g, and 0.05 mg/g. There were 10 replicates for the bioassay. For 9-oxo-2-decenoic acid, a two-choice bioassay was conducted with each of the following six concentrations: 0.39 mg/g, 0.197 mg/g, 0.098 mg/g, 0.049 mg/g, 0.025 mg/g, and 0.012 mg/g. There were 5 to 7 replicates for each two-choice bioassay. For 9-oxo-decanoic acid, a multiple-choice bioassay was conducted at six concentrations including 0.00 mg/g, 0.124 mg/g, 0.062 mg/g, 0.031 mg/g, 0.016 mg/g, and 0.007 mg/g. There were 11 replicates. For 11-oxo-tridecanoic acid, a multiple-choice bioassay was conducted at five concentrations including 0.00 mg/g, 7.71 mg/g, 3.86 mg/g, 1.93 mg/g, and 0.96 mg/g. There were 6 replicates. For 12-oxo-tetradecanoic acid, a multiple-choice bioassay was conducted at six concentrations including 0.00 mg/g, 1.15 mg/g, 0.58 mg/g, 0.29 mg/g, 0.14 mg/g, and 0.07 mg/g. There were 7 replicates.

In experiment [2] the test system is fire ants. Kind of experiment: Field paired two-choice feeding bioassay (soybean oil consumption). It counts as in vivo, Solenopsis invicta. Here is the method:
Multiple-choice and a paired two-choice bioassays were used in this study. A schematic representation of the bioassay set-ups is depicted in FIG. 19. Soybean oil was used as a food source for all the bioassays (Great Value, purchased from Walmart in Greenville Mississippi). The feeding apparatus was a filtered 1-ml pipette tip with the part 0.5 cm below the filter removed. In multiple-choice bioassays, four to six concentrations of tested compounds were tested with untreated soybean oil as a control, and in two-choice bioassays, the compound at certain concentration was tested against the control oil or oil treated with known fire ant attractant. Eighty microliter soybean oil was loaded onto each filter. After being weighed, the apparatuses with oil were placed in the field for about 2 hours. The apparatuses were then collected and frozen under −40° C. to kill all ants. The apparatuses were weighed again after all ants were removed from the apparatuses. The difference in the weight of apparatuses before and after the feeding bioassays was the oil consumption. There were six to 10 replicates for each bioassay. Feeding sites were at least 10 m away from each other. The difference in oil consumption among/between treatment and control apparatuses was used to evaluate the effect of tested compound on the feeding of fire ants. For multiple-choice bioassays, a one-way ANOVA was performed to compare the effect of different concentrations of tested compound on the percentage of oil consumption. Tukey's HSD test was used for multiple comparisons. A paired t test was used in statistical analysis for the two-choice bioassays.
Five oxo fatty acid analogs were tested in the filed using two-choice or multiple-choice bioassays. Tested were 8-oxo-decanoic acid, 9-oxo-2-decenoic acid, 9-oxo-decanoic acid, 11-oxo-tridecanoic acid, and 12-oxo-tetradecanoic acid. Eight oxo-decanoic acid was tested in a multiple-choice bioassay at 6 different concentrations including 0.00 mg/g, 0.81 mg/g, 0.41 mg/g, 0.20 mg/g, 0.10 mg/g, and 0.05 mg/g. There were 10 replicates for the bioassay. For 9-oxo-2-decenoic acid, a two-choice bioassay was conducted with each of the following six concentrations: 0.39 mg/g, 0.197 mg/g, 0.098 mg/g, 0.049 mg/g, 0.025 mg/g, and 0.012 mg/g. There were 5 to 7 replicates for each two-choice bioassay. For 9-oxo-decanoic acid, a multiple-choice bioassay was conducted at six concentrations including 0.00 mg/g, 0.124 mg/g, 0.062 mg/g, 0.031 mg/g, 0.016 mg/g, and 0.007 mg/g. There were 11 replicates. For 11-oxo-tridecanoic acid, a multiple-choice bioassay was conducted at five concentrations including 0.00 mg/g, 7.71 mg/g, 3.86 mg/g, 1.93 mg/g, and 0.96 mg/g. There were 6 replicates. For 12-oxo-tetradecanoic acid, a multiple-choice bioassay was conducted at six concentrations including 0.00 mg/g, 1.15 mg/g, 0.58 mg/g, 0.29 mg/g, 0.14 mg/g, and 0.07 mg/g. There were 7 replicates.
The following paired two-choice bioassays were conducted: 1) 10-oxo-dodecanoic acid at 1.14 mg/g vs trans, trans-2,4-heptadienal at 0.19 mg/g; 2) 11-oxo-dodecanoic acid at 1.08 mg/g vs trans, trans-2,4-heptadienal at 0.19 mg/g; 3) 10-oxo-dodecanoic acid at 1.14 mg/g vs 2-ethyl-3,6 (5)-dimethylpyrazine at 0.004 mg/g; 4) 11-oxo-dodecanoic acid at 1.08 mg/g vs 2-ethyl-3,6 (5)-dimethylpyrazine at 0.004 mg/g. The results are shown in Table 2 below, and FIG. 29A to FIG. 29D.

Experiment [3] relates to fire ants. The experiment is described as follows: Feeding bioassay (laboratory paired two-choice, treated vs untreated soybean oil). In kind it is in vivo, S. invicta. To be noted: soybean oil with 1.90 μg/mg 10-oxo-dodecanoic acid, 7.273 μg/mg 11-oxo-dodecanoic acid, or 0.36 μg/mg mixture (38.12%/61.88%) vs untreated oil; 24 hours; paired t test.
The subject of experiment [4] is worker fire ants. Kind of experiment: Attraction bioassay (paired two choice, treated tube vs acetone control). It counts as in vivo, S. invicta. To be noted: individual oxo acids, 20 μl acetone solution: 2.029 mg/ml 10-oxo-dodecanoic acid, 1.96 mg/ml 11-oxo-dodecanoic acid; host tray; 1 hour; paired t test.
Experiment [5] has as its system fire ants. To be noted: Vander Meer et al., 2009; cited from earlier work.
The mark [6] stands for this setting: Bioassay 1: 10-oxo-dodecanoic acid 1.14 mg/g vs trans, trans-2,4-heptadienal 0.19 mg/g.
Where [7] appears, read: Bioassay 1: 10-oxo-dodecanoic acid at 1.14 mg/g vs trans, trans-2,4-heptadienal at 0.19 mg/g.
The mark [8] stands for this setting: Bioassay 2: 11-oxo-dodecanoic acid 1.08 mg/g vs trans, trans-2,4-heptadienal 0.19 mg/g.
Where [9] appears, read: Bioassay 2: 11-oxo-dodecanoic acid at 1.08 mg/g vs trans, trans-2,4-heptadienal at 0.19 mg/g.
The mark [10] stands for this setting: Bioassay 4: 11-oxo-dodecanoic acid 1.08 mg/g vs 2-ethyl-3,6 (5)-dimethylpyrazine 0.004 mg/g.
[11] abbreviates: Bioassay 4: 11-oxo-dodecanoic acid at 1.08 mg/g vs 2-ethyl-3,6 (5)-dimethylpyrazine at 0.004 mg/g.
Where [12] appears, read: first multiple-choice bioassay (about 1 to 9 mg/g).
Setting [13] is: control 0.00 mg/g, field, about 2 hours.
The mark [14] stands for this setting: Bioassay 3: 10-oxo-dodecanoic acid 1.14 mg/g vs 2-ethyl-3,6 (5)-dimethylpyrazine 0.004 mg/g.
The mark [15] stands for this setting: Bioassay 3: 10-oxo-dodecanoic acid at 1.14 mg/g vs 2-ethyl-3,6 (5)-dimethylpyrazine at 0.004 mg/g.

Where “and” joins values, the source holds several entries; their conditions need not be identical. Equal entries are not always repeated. Entries after “also recorded” stand apart in the source; their conditions may differ.

For the molecule `CCC(=O)CCCCCCCCCCC(=O)O` [12-oxo-tetradecanoic acid], the “difference among treatments and control in oil consumption / feeding preference on soybean oil (one-way ANOVA)” value in experiment [1] is “no significant difference”.

Turning to `CCC(=O)CCCCCCCCCC(=O)O` [11-oxo-tridecanoic acid], in experiment [1], the “difference among treatments and control in oil consumption / feeding preference on soybean oil (one-way ANOVA)” value was “no significant difference”.

For `CC(=O)CCCCCCCC(=O)O` [9-oxo-decanoic acid], in experiment [1], the “difference among treatments and control in oil consumption / feeding preference on soybean oil (one-way ANOVA)” value was “no significant difference”.

`CCC(=O)CCCCCCC(=O)O` [8-oxo-decanoic acid]: in experiment [1], the “difference among treatments and control in oil consumption / feeding preference on soybean oil (one-way ANOVA)” value is recorded as “no significant difference”.

Take `CC/C=C/C=C/C=O` [trans, trans-2,4-heptadienal, reference compound]: the “difference in the effect on oil consumption between the two compounds” value (from here on “difference in the effect”) in experiment [2] (setting [6]) and in experiment [2] (setting [8]) was “no significant difference” throughout. For the same molecule, the “Mean oil consumption” value in experiment [2] (setting [7]) came to 22.83 mg; in experiment [2] (setting [9]), 19.95 mg. For the same molecule, in experiment [1], the “difference among treatments and control in oil consumption / feeding preference on soybean oil (one-way ANOVA)” value is given as “did not significantly improve; also recorded: not significantly different”. In experiment [1], the “concentration at which oil consumption was numerically the highest” value is 0.19 mg/g.

On to `CC(=O)CCCCCCCCCC(=O)O` [11-oxo-dodecanoic acid], for which the “difference in oil consumption between treatment and control” value in experiment [3] is listed as “significant difference”. Also, the “difference in the effect” value in experiment [2] (setting [8]) is “no significant difference”; in experiment [2] (setting [10]), “significant difference”. In addition, the entries for the “Mean oil consumption” value in experiment [2] (setting [9]) and in experiment [2] (setting [11]) were 21.23 mg and 15.8 mg, respectively. Also, the “most active / most effective concentration” value in experiment [1] (dosage bioassays in soybean oil) is “around 1.08 mg/g”. Moreover, in experiment [1] (setting [12]), the “concentration at which the effect on oil consumption was statistically significant compared to the control oil” value worked out at 1.08 mg/g. For the same molecule, the “effect of different concentrations on oil consumption (one-way ANOVA)” value in experiment [1] (setting [13]) was “significant effect”. Also, the “effect on oil consumption (one-way ANOVA)” value in experiment [1] (second multiple-choice bioassay: 10-oxo 0.51, 0.28, 0.142, 0.07 mg/g, 11-oxo 0.54, 0.27, 0.14, 0.07 mg/g, control 0.00 mg/g, field, about 2 hours) is given as “no significant effect”. Besides, in experiment [4], the “difference in the number of ants between treatment vials and control vials” value is on record as “significant difference”.

As to `CC(=O)CCCCCC=CC(=O)O` [9-oxo-2-decenoic acid], the “feeding preference of fire ant on soybean oil” value in experiment [2] (0.049 mg/g in soybean oil vs control) is reported as “significantly improved”.

Regarding `CCC(=O)CCCCCCCCC(=O)O` [10-oxo-dodecanoic acid], the “difference in oil consumption between treatment and control” value in experiment [3] is reported as “significant”. Moreover, the “difference in the effect” value is “no significant difference” in experiment [2] (setting [6]) and “significant difference” in experiment [2] (setting [14]). Moreover, the results for the “Mean oil consumption” value in experiment [2] (setting [7]) and in experiment [2] (setting [15]) were 23.84 mg and 12.69 mg, respectively. The “concentration at which the effect on oil consumption was statistically significant compared to the control oil” value was determined as 1.14 mg/g in experiment [1] (setting [12]) and 0.51 mg/g in experiment [1] (second multiple-choice bioassay (0.07 to about 0.5 mg/g)). Besides, the “effect of different concentrations on oil consumption (one-way ANOVA)” value in experiment [1] (setting [13]) was “significant effect”. In experiment [4], the “difference in the number of ants between treatment vials and control vials” value is given as “significant”.

For the molecule “2-ethyl-3,6 (5)-dimethylpyrazine [reference compound]”, the “difference in the effect” value in experiment [2] (setting [14]) and in experiment [2] (setting [10]) was “significantly higher oil consumption” throughout. Further, the results for the “Mean oil consumption” value in experiment [2] (setting [15]) and in experiment [2] (setting [11]) were 19.53 mg and 21.75 mg, respectively. Besides, the “difference among treatments and control in oil consumption / feeding preference on soybean oil (one-way ANOVA)” value in experiment [1] is listed as “significant difference”. The “concentration at which oil consumption was numerically the highest” value in experiment [1] amounted to 0.004 mg/g. Also, the “concentration that significantly improved the feeding preference of fire ant on soybean oil” value in experiment [1] (multiple-choice, 0.064 to 0.002 mg/g tested) was 0.002 mg/g and 0.004 mg/g. Moreover, the “concentration mostly preferred by fire ants” value in experiment [5] was 30 ng/µL.

(Values after patent publication US11944090B2, “Compositions and methods for attracting fire ants” (The United States of America, as represented by The …, priority 2021, dated 2024).)
